Several values for one entry are separate records, joined by “and”; a condition that tells them apart may be missing. Equal entries are not always repeated. Where two headings read alike, the source gives them in different places.
Key:
[1] = test system: Plasmodium falciparum strain 3D7; test: Antimalarial activity, whole-cell SYBR Green I assay; assay type: cell-based; conditions: read-out: Antimalarial activity (IC50) Mean
Method: Antimalarial activity of compounds IIa and IIb can be accessed by exposing a P. falciparum strain (see Example 5), such as strain 3D7, which is chloroquine and mefloquine sensitive, to said compounds, and by using the SYBR Green I assay as described in Machado et. al, Ann. Clin. Med. Microbio. 2016, 2, 1010. Asynchronous parasites are cultivated for 72 hours in the presence of each compound. Fluorescence intensity was measured with a multi-mode microplate reader (Triad, Dynex Technologies). Compounds IIa and IIb were active against the malaria parasite (see Example 5, Table 1). Compounds were dissolved in RPMI-1640 with L-glutamine (BiowestTM) supplemented with […] (GibcoTM), herein after referred to as RPMIc, to obtain an intermediate solution of 100 μM. Laboratory-adapted P. falciparum strain 3D7, a chloroquine and mefloquine sensitive strain, was continuously cultured as described elsewhere (Machado et. al, Ann. Clin. Med. Microbio. 2016, 2, 1010). Parasites were cultivated in 5% haematocrit, 37° C. and atmosphere with 5% of CO2. […] (GibcoTM) at 0.5% was used as a substitute of human serum in the culture medium. Staging and parasitemia were determined by light microscopy of Giemsa-stained thin blood smears. Anti-malarial activity was determined using the SYBR Green I assay (Machado et. al, Ann. Clin. Med. Microbio. 2016, 2, 1010 and Lobo et. al, […]. 2018, 17, 1). Briefly, asynchronous parasites were cultivated for 72 hours in the presence of a 1:3 serial dilution of each compound.

[2] = test system: U251 human glioblastoma; test: Antitumoral effect, MTS metabolism assay, U251; assay type: cell-based; conditions: U-251, 72 hours
[3] = test system: PC3 human prostate adenocarcinoma; test: Antitumoral effect, MTS metabolism assay, PC3; assay type: cell-based; conditions: 72 hours
[4] = test system: HCT116 human colorectal carcinoma; test: Antitumoral effect, MTS metabolism assay, HCT116; assay type: cell-based; conditions: HCT-116, 72 hours
[5] = test system: MCF7 human breast adenocarcinoma; test: Antitumoral effect, MTS metabolism assay, MCF7; assay type: cell-based; conditions: 72 hours
[6] = test system: AML12 murine immortalized hepatocyte cell line; test: Toxicity for non-tumoral cells, MTS assay, AML12; assay type: cell-based; conditions: for IC50: Mus musculus, non-tumorigenic cell line, 72 hours, MTS; for Selectivity (IC50Compound II/IC50 Doxorubicin): ratio to doxorubicin
[7] = Fluorescence quantum yields determination; assay type: physicochemical; conditions: water with 30% DMSO; standard fluorescein in 0.1 M sodium hydroxide
[8] = test system: HT-29 cells; conditions: 2 mg/kg intravenous, eight injections
[9] = chloroquine-sensitive 3D7 strain, asynchronous parasites, 72 hours

| Compound | IC50 ([1]; 3D7, 72 h) | IC50 [2] | IC50 [3] | IC50 [4] | IC50 [5] | IC50 [6] | fluorescence quantum yield [7] | reduction of the tumour mass versus negative control and vehicle control [8] | IC50 [1, 9] | Selectivity (IC50Compound II/IC50 Doxorubicin) [6] |
| --- | --- | --- | --- | --- | --- | --- | --- | --- | --- | --- |
| CCN(CC)CCCC(C)Nc1ccnc2cc(Cl)ccc12 (stereo not shown) [CQ, chloroquine, reference compound] | 19.4 nM |  |  |  |  |  |  |  |  |  |
| COc1cccc2c1C(=O)c1c(O)c3c(c(O)c1C2=O)C[C@@](O)(C(=O)CO)C[C@@H]3O[C@H]1C[C@H](N)[C@H](O)[C@H](C)O1 [Doxorubicin, doxorubicin, reference compound] |  | 11 nM | 120 nM | 50 nM | 170 nM | 170 nM | 2.8% | higher reduction of the tumour mass |  |  |
| CC(C)(C)OC(=O)N1CCN(C(=O)OC2CCCC3(C2)OOC2(OO3)C3CC4CC(C3)CC2C4)CC1 (stereo not shown) [Compound IIb] |  |  |  |  |  |  |  |  | 11.4 nM |  |
| COc1cccc2c1C(=O)c1c(O)c3c(c(O)c1C2=O)C[C@](O)(C(=O)CO)C[C@H]3O[C@@H]1CC(NC(=O)OCC2=CCCCC23OOC2(OO3)C3CC4CC2CC(O)(C4)C3)[C@@H](O)[C@@H](C)O1 (stereo partly shown) [Compound IIe] |  | 13200 nM | 14300 nM | 3520 nM | 8450 nM | 30500 nM |  |  |  | 180 and 179 |
| COc1cc(NC(C)CCCNC(=O)OC2CCCC3(C2)OOC2(OO3)C3CC4CC(C3)CC2C4)c2ncccc2c1 (stereo not shown) [Compound IIa] |  |  |  |  |  |  |  |  | 32.8 nM |  |
| COc1cccc2c1C(=O)c1c(O)c3c(c(O)c1C2=O)C[C@](O)(C(=O)CO)C[C@H]3O[C@@H]1CC(NC(=O)OC2CCCC3(C2)OOC2(OO3)C3CC4CC(C3)CC2C4)[C@@H](O)[C@@H](C)O1 (stereo partly shown) [IIc] |  | 250 nM | 1370 nM | 5110 nM | 1650 nM | 1830 nM |  |  |  | 10 and 10.64 |
